Key:
COLO 205 [1] = experiment: Cytotoxicity against human COLO205 cells assessed as growth inhibition after 48 hrs by sulforhodamine B assay; type: functional; conditions: COLO 205, 48 h
HCT-15 = experiment: Cytotoxicity against human HCT15 cells assessed as growth inhibition after 48 hrs by sulforhodamine B assay; type: functional; conditions: HCT-15, 48 h
U-251 = experiment: Cytotoxicity against human U251 cells assessed as growth inhibition after 48 hrs by sulforhodamine B assay; type: functional; conditions: U-251, 48 h
UACC-257 = experiment: Cytotoxicity against human UACC257 cells assessed as growth inhibition after 48 hrs by sulforhodamine B assay; type: functional; conditions: UACC-257, 48 h
MDA-MB-231 [2] = experiment: Cytotoxicity against human MDA-MB-231 cells assessed as growth inhibition after 48 hrs by MTT assay; type: functional, cell-based; conditions: MDA-MB-231, 48 h
OVCAR-8 [3] = experiment: Cytotoxicity against human OVCAR8 cells assessed as cell growth at 0.01 uM after 48 hrs by sulforhodamine B assay relative to control; type: functional; conditions: OVCAR-8, 48 h, read-out: Activity
UACC-62 = experiment: Cytotoxicity against human UACC62 cells assessed as cell growth at 0.01 uM after 48 hrs by sulforhodamine B assay relative to control; type: functional; conditions: UACC-62, 48 h, read-out: Activity
SK-MEL-28 [4] = experiment: Cytotoxicity against human SK-MEL-28 cells assessed as cell growth at 0.01 uM after 48 hrs by sulforhodamine B assay relative to control; type: functional; conditions: SK-MEL-28, 48 h, read-out: Activity
SF-268 [5] = experiment: Cytotoxicity against human SF268 cells assessed as cell growth at 0.01 uM after 48 hrs by sulforhodamine B assay relative to control; type: functional; conditions: SF-268, 48 h, read-out: Activity
COLO 205 [6] = experiment: Cytotoxicity against human COLO205 cells assessed as cell growth at 0.01 uM after 48 hrs by sulforhodamine B assay relative to control; type: functional; conditions: COLO 205, 48 h, read-out: Activity
MOLT-4 = experiment: Cytotoxicity against human MOLT4 cells assessed as cell growth at 0.01 uM after 48 hrs by sulforhodamine B assay relative to control; type: functional; conditions: MOLT-4, 48 h, read-out: Activity
MDA-MB-231 [7] = experiment: Cytotoxicity against human MDA-MB-231 cells assessed as cell growth at 0.01 uM after 48 hrs by sulforhodamine B assay relative to control; type: functional; conditions: MDA-MB-231, 48 h, read-out: Activity
Hs-578T = experiment: Cytotoxicity against human Hs 578T cells assessed as cell growth at 0.01 uM after 48 hrs by sulforhodamine B assay relative to control; type: functional; conditions: read-out: Activity
MDA-MB-468 [8] = experiment: Cytotoxicity against human MDA-MB-468 cells assessed as cell growth at 0.01 uM after 48 hrs by sulforhodamine B assay relative to control; type: functional; conditions: MDA-MB-468, 48 h, read-out: Activity
SR = experiment: Cytotoxicity against human SR cells assessed as cell growth at 0.1 uM after 48 hrs by sulforhodamine B assay relative to control; type: functional; conditions: read-out: Activity
NCI-H23 [9] = experiment: Cytotoxicity against human NCI-H23 cells assessed as cell growth at 0.1 uM after 48 hrs by sulforhodamine B assay relative to control; type: functional; conditions: NCI-H23, 48 h, read-out: Activity
MDA-MB-435 = experiment: Cytotoxicity against human MDA-MB-435 cells assessed as cell growth at 0.1 uM after 48 hrs by sulforhodamine B assay relative to control; type: functional; conditions: MDA-MB-435, 48 h, read-out: Activity
ACHN = experiment: Cytotoxicity against human ACHN cells assessed as cell growth at 0.1 uM after 48 hrs by sulforhodamine B assay relative to control; type: functional; conditions: read-out: Activity
MDA-MB-231 [10] = experiment: Cytotoxicity against human MDA-MB-231 cells assessed as cell growth at 0.1 uM after 48 hrs by sulforhodamine B assay relative to control; type: functional; conditions: MDA-MB-231, 48 h, read-out: Activity
MDA-MB-468 [11] = experiment: Cytotoxicity against human MDA-MB-468 cells assessed as cell growth at 0.1 uM after 48 hrs by sulforhodamine B assay relative to control; type: functional; conditions: MDA-MB-468, 48 h, read-out: Activity
NCI-H23 [12] = experiment: Cytotoxicity against human NCI-H23 cells assessed as cell growth at 1 uM after 48 hrs by sulforhodamine B assay relative to control; type: functional; conditions: NCI-H23, 48 h, read-out: Activity
OVCAR-8 [13] = experiment: Cytotoxicity against human OVCAR8 cells assessed as cell growth at 1 uM after 48 hrs by sulforhodamine B assay relative to control; type: functional; conditions: OVCAR-8, 48 h, read-out: Activity
PC-3 = experiment: Cytotoxicity against human PC3 cells assessed as cell growth at 1 uM after 48 hrs by sulforhodamine B assay relative to control; type: functional; conditions: PC-3, 48 h, read-out: Activity
HL-60(TB) = experiment: Cytotoxicity against human HL-60(TB) cells assessed as cell growth at 10 uM after 48 hrs by sulforhodamine B assay relative to control; type: functional; conditions: HL-60, 48 h, read-out: Activity
HCC 2998 = experiment: Cytotoxicity against human HCC2998 cells assessed as cell growth at 10 uM after 48 hrs by sulforhodamine B assay relative to control; type: functional; conditions: HCC 2998, 48 h, read-out: Activity
KM12 = experiment: Cytotoxicity against human KM12 cells assessed as cell growth at 10 uM after 48 hrs by sulforhodamine B assay relative to control; type: functional; conditions: KM12, 48 h, read-out: Activity
SK-MEL-28 [14] = experiment: Cytotoxicity against human SK-MEL-28 cells assessed as cell growth at 10 uM after 48 hrs by sulforhodamine B assay relative to control; type: functional; conditions: SK-MEL-28, 48 h, read-out: Activity
OVCAR-3 = experiment: Cytotoxicity against human OVCAR3 cells assessed as cell growth at 10 uM after 48 hrs by sulforhodamine B assay relative to control; type: functional; conditions: OVCAR-3, 48 h, read-out: Activity
OVCAR-8 [15] = experiment: Cytotoxicity against human OVCAR8 cells assessed as cell growth at 10 uM after 48 hrs by sulforhodamine B assay relative to control; type: functional; conditions: OVCAR-8, 48 h, read-out: Activity
A498 = experiment: Cytotoxicity against human A498 cells assessed as cell growth at 10 uM after 48 hrs by sulforhodamine B assay relative to control; type: functional; conditions: A498, 48 h, read-out: Activity
SN12C = experiment: Cytotoxicity against human SN12C cells assessed as cell growth at 10 uM after 48 hrs by sulforhodamine B assay relative to control; type: functional; conditions: read-out: Activity
MDA-MB-231 [16] = experiment: Cytotoxicity against human MDA-MB-231 cells assessed as cell growth at 10 uM after 48 hrs by sulforhodamine B assay relative to control; type: functional; conditions: MDA-MB-231, 48 h, read-out: Activity
BT-549 = experiment: Cytotoxicity against human BT549 cells assessed as cell growth at 10 uM after 48 hrs by sulforhodamine B assay relative to control; type: functional; conditions: BT-549, 48 h, read-out: Activity
K562 = experiment: Cytotoxicity against human K562 cells assessed as cell growth at 100 uM after 48 hrs by sulforhodamine B assay relative to control; type: functional; conditions: K562, 48 h, read-out: Activity
HCT-116 = experiment: Cytotoxicity against human HCT116 cells assessed as cell growth at 100 uM after 48 hrs by sulforhodamine B assay relative to control; type: functional; conditions: HCT-116, 48 h, read-out: Activity
SF-268 [17] = experiment: Cytotoxicity against human SF268 cells assessed as cell growth at 100 uM after 48 hrs by sulforhodamine B assay relative to control; type: functional; conditions: SF-268, 48 h, read-out: Activity

## COc1ccc(C(=O)/C=C/c2cc(-c3cc(OC)c(OC)c(OC)c3)n[nH]2)cc1
COLO 205 [1]
  LC50: 6.06 µM
  TGI: 3.24 µM
HCT-15
  LC50: > 100 µM
  TGI: 4.37 µM
U-251
  TGI: 2.83 µM
UACC-257
  TGI: 3.74 µM
MDA-MB-231 [2]
  IC50: 0.95 µM
OVCAR-8 [3]
  growth at 0.01 µM: 95%
UACC-62
  growth at 0.01 µM: 100%
SK-MEL-28 [4]
  growth at 0.01 µM: 105%
SF-268 [5]
  growth at 0.01 µM: 91%
COLO 205 [6]
  growth at 0.01 µM: 103%
MOLT-4
  growth at 0.01 µM: 103%
MDA-MB-231 [7]
  growth at 0.01 µM: 104%
Hs-578T
  growth at 0.01 µM: 99%
MDA-MB-468 [8]
  growth at 0.01 µM: 89%
SR
  growth at 0.1 µM: 83%
NCI-H23 [9]
  growth at 0.1 µM: 92%
MDA-MB-435
  growth at 0.1 µM: 95%
ACHN
  growth at 0.1 µM: 102%
MDA-MB-231 [10]
  growth at 0.1 µM: 94%
MDA-MB-468 [11]
  growth at 0.1 µM: 88%
NCI-H23 [12]
  growth at 1 µM: 95%
OVCAR-8 [13]
  growth at 1 µM: 86%
PC-3
  growth at 1 µM: 76%
HL-60(TB)
  growth at 10 µM: -47%
HCC 2998
  growth at 10 µM: -83%
KM12
  growth at 10 µM: -88%
SK-MEL-28 [14]
  growth at 10 µM: -55%
OVCAR-3
  growth at 10 µM: -72%
OVCAR-8 [15]
  growth at 10 µM: -8%
A498
  growth at 10 µM: -57%
SN12C
  growth at 10 µM: -69%
MDA-MB-231 [16]
  growth at 10 µM: -33%
BT-549
  growth at 10 µM: -65%
K562
  growth at 100 µM: 1%
HCT-116
  growth at 100 µM: -10%
SF-268 [17]
  growth at 100 µM: -37%

## COc1cc(C(=O)/C=C/c2cc(-c3ccc4c(c3)OCO4)n[nH]2)cc(OC)c1OC
COLO 205 [1]
  GI50: 2.08 µM
  LC50: 12.6 µM
  TGI: 4.66 µM
HCT-15
  GI50: 1.95 µM
  LC50: > 100 µM
  TGI: 6.75 µM
U-251
  GI50: 1.21 µM
  LC50: 5.13 µM
  TGI: 2.49 µM
UACC-257
  GI50: 2.95 µM
  LC50: 32 µM
  TGI: 9.46 µM
MDA-MB-231 [2]
  IC50: 1.2 µM
OVCAR-8 [3]
  growth at 0.01 µM: 98%
UACC-62
  growth at 0.01 µM: 96%
SK-MEL-28 [4]
  growth at 0.01 µM: 100%
SF-268 [5]
  growth at 0.01 µM: 96%
COLO 205 [6]
  growth at 0.01 µM: 100%
MOLT-4
  growth at 0.01 µM: 97%
MDA-MB-231 [7]
  growth at 0.01 µM: 100%
Hs-578T
  growth at 0.01 µM: 92%
MDA-MB-468 [8]
  growth at 0.01 µM: 89%
SR
  growth at 0.1 µM: 94%
NCI-H23 [9]
  growth at 0.1 µM: 93%
MDA-MB-435
  growth at 0.1 µM: 95%
ACHN
  growth at 0.1 µM: 103%
MDA-MB-231 [10]
  growth at 0.1 µM: 98%
MDA-MB-468 [11]
  growth at 0.1 µM: 82%
NCI-H23 [12]
  growth at 1 µM: 92%
OVCAR-8 [13]
  growth at 1 µM: 93%
PC-3
  growth at 1 µM: 71%
HL-60(TB)
  growth at 10 µM: -20%
HCC 2998
  growth at 10 µM: -64%
KM12
  growth at 10 µM: -66%
SK-MEL-28 [14]
  growth at 10 µM: -56%
OVCAR-3
  growth at 10 µM: -73%
OVCAR-8 [15]
  growth at 10 µM: -23%
A498
  growth at 10 µM: -39%
SN12C
  growth at 10 µM: -23%
MDA-MB-231 [16]
  growth at 10 µM: -22%
BT-549
  growth at 10 µM: -38%
K562
  growth at 100 µM: 5%
HCT-116
  growth at 100 µM: -47%
SF-268 [17]
  growth at 100 µM: -89%
